Here are results for eight compounds from patent US8785500B2, “Intranasal administration of ketamine to treat depression” (priority 2006, dated 2014).

As usually defined, the half-life is how long it takes for the measured level to halve.

Series [1] relates to subjects with DSM-IV treatment-resistant major depression. The series can be described thus: Randomized, placebo-controlled, double-blind crossover study of a single intravenous ketamine hydrochloride infusion. The note with it: for effect size for the drug difference (d), HDRS: ketamine vs placebo. The source says:
Treatment-resistant major depression is a relatively common occurrence in clinical practice, with up to 50 to 60% of patients not achieving adequate response following antidepressant treatment. […] If the depression has not benefited from at least two adequate trials of medications from different classes in the current episode, clinically significant resistance is present. Several schemes to “stage” the degree of resistance have been proposed. The most widely accepted scheme uses the staging system of Thase and Rush. The stages of resistance are as follows:
Thus, the patient population to be treated by the present invention may be defined according to any one or more of the above schemes. After a 2-week drug-free period, exemplary subjects having treatment-resistant depression were given an intravenous infusion of either ketamine hydrochloride (0.5 mg/kg) or placebo on 2 test days, a week apart. Subjects were rated at baseline and at 40, 80 minutes, 110 minutes, 230 minutes and days 1, 2, 3 and 7 post-infusion. The outcome of the treatment was measured using changes in scores on the primary efficacy to measure the 21-item Hamilton Depression Rating Scale (HDRS).
Men and women, ages 18 to 65 years, who were inpatients with a diagnosis of major depressive disorder recurrent without psychotic features as diagnosed by means of the Structured Clinical Interview for Axis I DSM-IV Disorders—Patient Version 28 were eligible to participate.
All subjects were in good physical health as determined by medical history, physical exam, blood labs, electrocardiogram, chest x-ray, urinalysis and toxicology. Subjects were free of comorbid substance abuse or dependence for at least 3 months and judged clinically not to be a serious suicidal risk.
After a 2 week drug-free period, 18 subjects with DSM-IV major depression were randomized to an intravenous infusion of either ketamine hydrochloride (0.5 mg/kg) or placebo (saline solution) given over 40 minutes with a Baxter infusion pump on 2 test days, a week apart, in a double-blind, crossover study. Seventeen subjects received ketamine and 14 received placebo.
Subjects were rated 60 minutes prior to the infusion and at 40, 80, 110, and 230 minutes as well as 1, 2, 3, and 7 days after the infusion. The 21-item HDRS, Beck Depression Inventory Scale (BDI; [31]), Brief Psychiatric Rating Scale-positive symptoms (BPRS; [32]), Young Mania Rating Scale (YMRS; [33]), and the visual analogue scales score (VAS-depression; [34]). Raters, who trained together to establish reliability, performed patient ratings. […] Subjects were rated by a separate set of raters to help maintain blind to the infusion procedures and resulting side effects. The first set of raters administered the scales on the day of infusion (60 minutes prior to the infusion and 40, 80, 110 post-infusion). From 230 minutes onwards (days 1 through 7), a separate group of raters rated the subjects. Clinical response was defined as a 50% or greater decrease in the HDRS rating scale from baseline and remission as HDRS≦7 [35].
A full factorial, fixed effects linear mixed model with a compound symmetry covariance structure was used to examine the differences between ketamine and placebo over 9 time points from baseline to 7 days. Restricted maximum likelihood estimation was used to estimate missing values. Significant effects were examined with simple effects tests. The 21-item HDRS was the primary outcome measure. Scores from the BDI, BPRS, YMRS, and VAS were secondary outcome measures. Secondary analysis included examination of the individual items of the HDRS. Significance was evaluated at α<0.05, two-tailed.

Series [2] relates to subjects with major depression. The note with it: cited from earlier work.
Series [3] deals with men and women with intractable central neuropathic pain. To be noted: cited from earlier work; for pain disability and subjective physical and mental function: 75 mg transdermally over 24 hours for 7 days.
For a further series, the system named is male Wistar rats. The note with it: single dose; cited from earlier work.
Another series deals with NMDA receptor. To be noted: cited from earlier work.
The subject of series [4] is non-NMDA voltage-gated potassium currents. To be noted: in vitro; cited from earlier work.
For series [5], the system named is women after abdominal gynecological surgery with lidocaine epidural blockade. To be noted: cited from earlier work.
Series [6] concerns chronic pain patients with breakthrough pain (BTP). To be noted: 10-50 mg intranasal; cited from earlier work.
For series [7] the following is noted: in vivo; cited from earlier work.
The conditions of series [8]: in vivo; cited from earlier work. This is another data set of the same source.
A short description of series [9]: Intranasal versus intravenous ketamine plasma levels. The note with it: human, other: intranasal.
Method: The slow infusion of ketamine produces gradually increasing plasma levels during the infusion period. Dose-wise, the typical ketamine dose for surgical induction is between 1.0-2.0 mg/kg, with additional ketamine used to sustain anesthesia.
Series [10] has as its system major depression. The note with it: reviews of antidepressant trials; cited from earlier work.
The conditions of series [11]: clinical trials; cited from earlier work.
The test system of series [12] is major depression. To be noted: administered orally; cited from earlier work.
[13] abbreviates: both, human, in vivo, intravenous, 0.5 mg/kg.
Setting [14] is: one day after infusion, intent to treat, n=17.

Structures are written as SMILES.

Take `CNC1(c2ccccc2Cl)CCCCC1=O` (racemic) [ketamine, 2-(2-chlorophenyl)-2-(methylamino)-cyclohexanone]: the “onset of improvement in depression post-infusion” value in [1] (HDRS vs placebo) is ≤ 2 h. Also, the “effect size for the drug difference (d), HDRS” value in series [1] (after 1 week, completers) was found to be 0.68. The “effect size for the drug difference (d), HDRS” value in series [1] (after 24 hours, completers) was determined as 1.46. In addition, in series [1] (setting [13]), the “only time at which BPRS positive symptoms were worse on ketamine than placebo” value is 40 min, the “only time at which YMRS scores were worse (higher) on ketamine than placebo” value is 40 min and the “time beyond which euphoria or derealization/depersonalization did not persist” value is ≤ 110 min. In addition, in [1] (completers), the “earliest improvements, depressed mood and guilt (HDRS items)” value was 40 min; the “individual HDRS symptoms with only a significant main effect for drug” value is “symptoms improved on ketamine for suicide, insomnia, general somatic symptoms, genital symptoms, and hypochondriasis”; the “individual HDRS symptoms with significant time by drug interaction” value is “Depressed mood, guilt, work and interests, and psychic anxiety improved significantly”; the “time at which motor retardation and gastrointestinal symptoms (HDRS items) were worse” value was 40 min. Further, in series [1] (first phase data only, significant through the seventh day), the “time by which HDRS scores were lower on ketamine” value was 80 min. For the same compound, the “baseline HDRS in the second phase of those who received ketamine first (carryover)” value in [1] (first-phase baseline 24.9±6.9, one week after infusion) was 17.2±6.9. Moreover, the “Peak change in BPRS positive symptoms on Ketamine, Group” value in series [1] (group mean ±) was “+3.1 ± 3.4”. For the same compound, the “% Change in HDRS (day 1) Ketamine, Group” value in series [1] (group mean ±, 0.5 mg/kg i.v. over 40 min, baseline to day 1) is listed as −56.2 ± 20.4%. In series [1] (in vivo), the “side effects occurring more commonly on ketamine than placebo” value is “perceptual disturbances, confusion, elevations in blood pressure, euphoria, dizziness, and increased libido”. Also, the “time after infusion within which side effects ceased” value in series [1] (majority of side effects) was ≤ 80 min. Besides, in series [1] (setting [14]), the “subjects meeting remission criteria (HDRS≦7)” value turned out to be 29% and the “subjects meeting response criteria (50% or greater decrease in HDRS)” value is 71%. In addition, in [1] (single infusion 0.5 mg/kg), the “subjects who maintained response at least 2 weeks” value amounted to 2 subjects and the “subjects who maintained response for at least 1 week” value was determined as 35%. Besides, the “time from which VAS depression (mood) improved on ketamine” value in [1] (through 7 days) was 40 min. Further, the “time from which self-rated BDI improved on ketamine” value in series [1] (through 7 days, completers) is 40 min. Moreover, the “patients with 50% or greater decrease in HDRS during the 3-day follow-up period” value in series [2] (Berman et al.) is on record as 4 of 8. For the same compound, in series [2] (previous study (Berman et al.)), the “onset of antidepressant effect post-infusion” value is 230 min. Also, in series [2] (single intravenous dose, 7 subjects), the antidepressant effect result was “rapid and short-lived antidepressant effect”. Besides, in series [3], the “pain disability and subjective physical and mental function” value was “significant improvement in pain disability, and subjective physical and mental function”. For the same compound, the “time for which induction of behavioral despair is interfered with” value with male Wistar rats is given as “up to 10 days”. In the series with NMDA receptor, the “affinity for the NMDA receptor in contrast to memantine” value is listed as “higher affinity for the NMDA receptor”, the “affinity for the NMDA receptor versus other sites” value is reported as “several fold higher than that for other sites” and the “open channel blocking/unblocking kinetics in contrast to memantine” value is “much slower open channel blocking/unblocking kinetics”. Also, the “effect on non-NMDA voltage-gated potassium currents” value in [4] is reported as “only reduces non-NMDA voltage-gated potassium currents at much higher than reported in patients anesthetized with ketamine”. Further, the side effects entry in [5] (transdermal 25 mg over 24 hrs) was “no side effects”. Further, in series [5] (transdermal patch 25 mg/24 hours, placebo 94±54), the “time to rescue analgesic” value was 230 ± 112 min. In addition, in [6], the “breakthrough pain versus placebo” value was “lower BTP” and the side effects entry is given as “very few side effects”. For the same compound, the half-life entry in series [7] was “approximately 2 hours”. For the same compound, the “intranasal plasma levels (pain) lower than in intravenous studies in depression” value in series [8] is on record as 3-4 fold. In addition, the “i.v. dose roughly equivalent to the intranasal dose used for pain (50 mg)” value in series [9] is ~0.1 mg/kg.
For `CN[C@]1(c2ccccc2Cl)CCCCC1=O` [S(+)-ketamine], the “pain intensity (Visual Analog Scale)” value in [3] (50 mg, 75 mg or placebo) was “no change among groups”. In addition, the “pain disability and subjective physical and mental function” value in [3] is “significant improvement in pain disability, and subjective physical and mental function”. For the same compound, the “dissociation or psychotic symptoms” value in [3] (in vivo) is recorded as “no reports of dissociation or psychotic symptoms”.
On to `CC(NC(C)(C)C)C(=O)c1cccc(Cl)c1` (centres unmarked) [bupropion], for which the “response rates at week 8” value with major depression [10] is 62%.
As to `Nc1nnc(-c2cccc(Cl)c2Cl)c(N)n1` [lamotrigine], in series [11], the antidepressant properties result is reported as “found to have antidepressant properties”.
As for `CC12CC3CC(C)(C1)CC(N)(C3)C2` [memantine], in the series with major depression [12], the antidepressant effects result was “did not show the low- to moderate-affinity non-competitive NMDA antagonist memantine, administered orally, to have antidepressants effects”.
On to `NC1(c2ccccc2Cl)CCCCC1=O` (centres unmarked) [norketamine], for which, in [7], the half-life was ~5 h.
On to `Nc1nc2ccc(OC(F)(F)F)cc2s1` [riluzole], for which the antidepressant properties entry in [11] is listed as “found to have antidepressant properties”.
On to `COc1ccc(C(CN(C)C)C2(O)CCCCC2)cc1` (centres unmarked) [venlafaxine], for which, in the series with major depression [10], the “response rates at week 8” value is given as 65%.
